Numbers after ± are expanded uncertainties.
Key:
[1] = Molar enthalpy of transition or fusion; settings: Crystal; DSC
[2] = Crystal; DTA

Molar enthalpy of transition or fusion [1]: 7 ± 0.454 kcal/mol
Normal melting temperature [2]: 125.90 ± 1.1 °C
Structure (SMILES): N#Cc1ccccc1-c1ccc(CBr)cc1 [4'-(bromomethyl)-2-cyanobiphenyl]

From the NIST ThermoML archive (doi:10.1016/j.jct.2016.06.032)
